{
  "source": "patent US20230382863A1",
  "about": "“MEK INHIBITORS AND USES THEREOF” (Ikena Oncology, Inc., priority 2022, published 2023)",
  "key": {"[1]": {"tested_on": "SKM-1 xenograft (KRAS K117N)", "assay": "In vivo efficacy, SKM-1 xenograft model", "set-up": "species or system mouse", "conditions": "SKM-1 model, Day 22", "protocol": "(§1) The antitumor activity of exemplary MEK inhibitor compounds is evaluated in vivo using human cell line derived xenografts (CDX) grown in immunodeficient mice. For these studies, AsPC1 (pancreatic cell line with KRAS G12D mutation), NCI-H2122 (lung cell line with KRAS G12C mutation), and 5637 (bladder cell line with CRAF amplification) models are used. In addition, HCT-116 (colorectal cell line with KRAS G13D mutation), SKM-1 (AML cell line with KRAS K117N mutation), and OCI-AML-3 (AML cell line with NRAS Q61L mutation) models are used. The tumor cell lines (AsPC-1, NCI-H2122, 5637, and HCT-116 cells) are maintained in vitro as monolayer culture in medium at 37° C. in an atmosphere of 5% CO2 in air. The tumor cell lines (SKM-1 and OCI-AML-3 cells) are maintained in vitro as a suspension in medium at 37° C. in an atmosphere of 5% CO2 in air. The tumor cells are routinely sub-cultured before confluence by trypsin-EDTA treatment, not to exceed 4-5 passages. The cells growing in an exponential growth phase are harvested for tumor inoculation. AsPC1, NCI-H2122, and OCI-AML-3 tumors are implanted into Balb/c nude mice. HCT-116 tumors are implanted into Nu/Nu mice. 5637 and SKM-1 tumors are implanted into NOG mice. Each mouse is inoculated subcutaneously on the right flank with tumor cells in a 1:1 mixture with matrigel. Tumors are allowed to grow to approximately 150-200 mm^3. At this time, mice are assigned to groups such that the mean tumor volume is the same for each treatment group. The MEK inhibitor compound treatments are administrated to the tumor-bearing mice via oral gavage. Throughout the study, mouse body weight and tumor volume are recorded. The measurement of tumor size is conducted twice weekly with a caliper and recorded. The tumor volume (mm^3) is estimated using the formula: TV=a×b^2/2, where “a” and “b” are long and short diameters of a tumor, respectively."}, "[2]": {"assay": "Cassette pharmacokinetics studies in mice", "format": "in vivo", "conditions": "male, Balb/c, plasma, Mouse", "procedure,_shortened": "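Male Balb/c mice (3 per route) received cassette doses in 5% DMSO/95% PEG400 at 2 mg/kg IV (1 mg/kg where IV*) or 5 mg/kg PO. Plasma sampled to 24 h, acetonitrile-precipitated with internal standard, quantified by HPLC/MS/MS against 0.5-1,000 ng/mL standards.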"}, "[3]": {"tested_on": "HCT-116 xenograft (KRAS G13D)", "assay": "In vivo efficacy, HCT-116 xenograft model", "set-up": "species or system mouse", "conditions": "HCT-116 model, Day 20", "protocol": "as §1"}, "BRAF in complex with MEK": {"tested_on": "BRAF in complex with MEK", "assay": "BRAF-MEK stabilization in cells (MEK immunoprecipitation, Western)", "format": "cell-based", "conditions": "3 nM, 4 hours", "from_the_text": "The stabilization of ARAF, BRAF and CRAF in complex with MEK in MEK immunoprecipitates isolated from cellular lysates. For these studies, HCT-116 (colorectal cell line with KRAS G13D mutation), SKMEL-2 (melanoma cell line with NRAS Q61K mutation), HT-29 (colorectal cell line with BRAF Class I mutation), NCI-H1755 (lung cancer cell line with BRAF Class II mutation), and NCI-H1666 (lung cancer cell line with BRAF Class III mutation) models are used. The tumor cell lines are maintained in vitro as monolayer culture in medium at 37° C. in an atmosphere of 5% CO2 in air. Cell lines are treated with exemplary MEK inhibitors at a concentration of 3 nM for 4 hours. Cells are lysed and MEK is immunoprecipitated from the lysates overnight. Denatured immunoprecipitates are run on SDS-PAGE, transferred to nitrocellulose membranes and associated ARAF, BRAF, or CRAF are detected by Western analysis. Stabilization was defined as >1.5-fold induction of RAF-MEK interaction over vehicle control."}, "pERK HCT-116 (G13D)": {"tested_on": "pERK HCT-116 (G13D)", "assay": "pERK HCT-116 (G13D) ICW (4 hour)", "format": "cell-based", "conditions": "Homo sapiens, read-out: pERK HCT-116 (G13D) ICW (4 hour): Average IC50 (nM)"}, "[4]": {"tested_on": "AsPC1 xenograft (KRAS G12D)", "assay": "In vivo efficacy, AsPC-1 xenograft model", "set-up": "species or system mouse", "conditions": "AsPC-1 model, 3 mg/kg QD, Day 21", "protocol": "The antitumor activity of exemplary MEK inhibitor compounds is evaluated in vivo using human cell line derived xenografts (CDX) grown in immunodeficient mice. For these studies, AsPC1 (pancreatic cell line with KRAS G12D mutation), NCI-H2122 (lung cell line with KRAS G12C mutation), and 5637 (bladder cell line with CRAF amplification) models are used. In addition, HCT-116 (colorectal cell line with KRAS G13D mutation), SKM-1 (AML cell line with KRAS K117N mutation), and OCI-AML-3 (AML cell line with NRAS Q61L mutation) models are used. The tumor cell lines (AsPC-1, NCI-H2122, 5637, and HCT-116 cells) are maintained in vitro as monolayer culture in medium at 37° C. in an atmosphere of 5% CO2 in air. The tumor cell lines (SKM-1 and OCI-AML-3 cells) are maintained in vitro as a suspension in medium at 37° C. in an atmosphere of 5% CO2 in air. The tumor cells are routinely sub-cultured before confluence by trypsin-EDTA treatment, not to exceed 4-5 passages. The cells growing in an exponential growth phase are harvested for tumor inoculation. AsPC1, NCI-H2122, and OCI-AML-3 tumors are implanted into Balb/c nude mice. HCT-116 tumors are implanted into Nu/Nu mice. 5637 and SKM-1 tumors are implanted into NOG mice. […] Throughout the study, mouse body weight and tumor volume are recorded. The measurement of tumor size is conducted twice weekly with a caliper and recorded. […]"}, "[5]": {"tested_on": "240 cell lines with known alterations in the MAPK pathway", "assay": "MEK inhibitor sensitivity in 240 cell lines (Cell Titer Glo, 5 days)", "format": "cell-based", "conditions": "cell lines with KRAS, NRAS, BRAF Class I and III mutations, CRAF-alterations", "protocol": "240 cell lines representative of multiple cancer indications with known alterations in the MAPK pathway, including KRAS, NRAS, HRAS, NF1, EGFR, BRAF and CRAF mutations, were seeded overnight in […], then treated with a 9-point dose response of exemplary MEK inhibitors (starting dose of 100 nM and 3-fold dilution) for 5 days. Cell viability was determined using a Cell Titer Glo (CTG) assay. Percent inhibition was calculated for all compounds utilizing staurosporine (1000 nM) treatment as a measure of maximal inhibition. IC50 and area under the curve (AUC) values were determined by fitting a variable slope, four parameters curve to the compound concentration to percent inhibition relationship."}},
  "data": [
    {"smiles": "CNS(=O)(=O)Nc1cccc(Oc2c(C(=O)NC3CC3)c(Nc3ccc(I)cc3F)n(C)c(=O)c2C)c1Cl", "note": "[Compound I-2, 4-(2-chloro-3-((N-methylsulfamoyl)amino)phenoxy)-N-cyclopropyl-2-((2-fluoro-4-iodophenyl)amino)-1,5-dimethyl-6-oxo-1,6-dihydropyridine-3-carboxamide]", "values": [
      {"measurement": "percent TGI", "setting": "[1]; 1 mg/kg QD", "result": 97.7, "unit": "%"},
      {"measurement": "weight gain", "setting": "[1]; 1 mg/kg QD", "result": 1.2, "unit": "%"},
      {"measurement": "average body weight loss", "setting": "[1]; 3 mg/kg QD", "result": 1.2, "unit": "%"},
      {"measurement": "percent TGI", "setting": "[1]; 6 mg/kg QOD", "result": 96.2, "unit": "%"},
      {"measurement": "weight gain", "setting": "[1]; 6 mg/kg QOD", "result": 3.9, "unit": "%"},
      {"measurement": "AUC(0-inf)", "setting": "[2]; IV, 2 mg/kg", "result": 1950, "unit": "ng·h/mL"},
      {"measurement": "AUC(0-t)", "setting": "[2]; IV, 2 mg/kg", "result": 1940, "unit": "ng·h/mL"},
      {"measurement": "clearance", "setting": "[2]; IV, 2 mg/kg", "result": 17.2, "unit": "mL/min/kg"},
      {"measurement": "half-life", "setting": "[2]; IV, 2 mg/kg", "result": 1.04, "unit": "h"},
      {"measurement": "Vd", "setting": "[2]; IV, 2 mg/kg, read-out: Vdss", "result": 1.3, "unit": "L/kg"},
      {"measurement": "AUC(0-inf)", "setting": "[2]; PO, 5 mg/kg", "result": 4040, "unit": "ng·h/mL"},
      {"measurement": "AUC(0-t)", "setting": "[2]; PO, 5 mg/kg", "result": 3960, "unit": "ng·h/mL"},
      {"measurement": "Cmax", "setting": "[2]; PO, 5 mg/kg", "result": 1660, "unit": "ng/mL"},
      {"measurement": "Tmax", "setting": "[2]; PO, 5 mg/kg", "result": 0.5, "unit": "h"},
      {"measurement": "half-life", "setting": "[2]; PO, 5 mg/kg", "result": 7.99, "unit": "h"},
      {"measurement": "average body weight gain", "setting": "[3]; 2 mg/kg QD", "result": 4, "unit": "%"},
      {"measurement": "percent TGI", "setting": "[3]; 2 mg/kg QD", "result": 102.9, "unit": "%"},
      {"measurement": "average body weight gain", "setting": "[3]; 3 mg/kg QOD", "result": 5.5, "unit": "%"},
      {"measurement": "percent TGI", "setting": "[3]; 3 mg/kg QOD", "result": 98.1, "unit": "%"},
      {"measurement": "average body weight gain", "setting": "[3]; 6 mg/kg QOD", "result": 12.1, "unit": "%"},
      {"measurement": "percent TGI", "setting": "[3]; 6 mg/kg QOD", "result": 98, "unit": "%"},
      {"measurement": "Wild-type BRAF-MEK association", "setting": "BRAF in complex with MEK; HCT-116 and SKMEL-2 cells", "result": "augmented"},
      {"measurement": "mutant BRAF-MEK interaction", "setting": "BRAF in complex with MEK; HT-29 (BRAF Class I), NCI-H1755 (BRAF Class II), NCI-H1666 (BRAF Class III)", "result": "enhanced"},
      {"measurement": "IC50", "setting": "pERK HCT-116 (G13D)", "result": "< 100", "unit": "nM"},
      {"measurement": "average body weight gain", "setting": "[4]", "result": 2.4, "unit": "%"},
      {"measurement": "percent TGI (tumor growth inhibition)", "setting": "[4]", "result": 83.4, "unit": "%"},
      {"measurement": "sensitivity compared to RAS/RAF wild-type cell lines", "setting": "[5]", "result": "increased sensitivity"}
    ]}
  ]
}
